From US9255272B2, “Use of inhibitors of leukotriene B4 receptor BLT2 for treating asthma” (Korea University Research & Business Foundation, priority 2007, dated 2016)

Columns and labels:
eosinophil = conditions: concentration of 10 μM; cited from earlier work
BLT1 mRNA = BLT1 mRNA level in lung of OVA-challenged mice (semiquantitative RT-PCR); assay type: in vivo, mouse; conditions: C57BL/6 mice, 1.6 mg/kg i.v. 24 hr and 1 hr before 10% OVA challenge
Description: (§1) Female BALB/c mice and C57BL/6 mice (7 weeks old; 18-20 g) were obtained from Orientbion Inc. (Seoungnam, Korea). Sensitization and challenge were carried out as described previously with some modification (28). Briefly, female C57BL/6 mice (7 weeks old; 18-20 g) were immunized by intraperitoneal (i.p.) injection of 200 μg ovalbumin (OVA) emulsified in 2.5 mg of adjuvant aluminum hydroperoxide gel (alum) (Pierce, Rockford, Ill.). A second i.p. injection of 20 μg OVA adsorbed onto alum (2.5 mg) was administered 10 days later. After an additional 10 days, mice were exposed to an aerosol of 1% OVA in saline for 30 min daily on 3 consecutive days. On day 25, mice were finally challenged by provocation with 10% OVA aerosol. For inhibition experiments, sense or antisense BLT2 (1.6 mg/kg) was injected intravenously 24 h and then 1 h before the 10% OVA challenge. The mice were then killed on day 27 to assess asthmatic phenotypes. Antisense BLT2 oligonucleotide (5′-[…]-3′ (SEQ ID NO: 15)), sense BLT2 oligonucleotide (5′-[…]-3′ (SEQ ID NO: 16)).
Total RNA was extracted from lung samples using Easy-blue RNA extraction reagent (Intron, Korea). […] For the semiquantitative analysis of transcripts, the optimal PCR conditions were first determined by linear amplification of glyceraldehyde-3-phosphate dehydrogenase (GAPDH). […]

ROS = ROS levels in BAL fluid cells (DCF fluorescence, FACS); assay type: in vivo, mouse; conditions: 1.6 mg/kg i.v. 24 hr and 1 hr before 10% OVA; BAL fluid 48 h after challenge
Description: as §1
ROS levels in BAL fluids were measured as a function of DCF fluorescence as described previously (30). […] DCF fluorescence was excited at 488 nm and the evoked emission was filtered with a 515-nm long-pass filter. […]

Rac = assay: Endogenous Rac expression in lung tissue (Western blot); assay type: in vivo, mouse; conditions: oligonucleotides injected into tail veins, mice sacrificed after 12 hr
Source text: FIGS. 10a and 10b show activation of Rac in the lung tissue by OVA provocation and inhibition of endogenous Rac expression by antisense Rac oligonucleotide treatment. Lung samples were homogenized with micropestle and washed with PBS twice. FIG. 10a depicts Western blot analysis of Rac expression in mouse model of asthma. For membrane protein preparation, cells were suspended in Buffer A and cells were ruptured by passing through 21-G syringe. After ultracentrifugation, protein samples in pelleted membrane fraction were dissolved with buffer A containing 1% Triton X-100. FIG. 10b depicts Western blot analysis of Rac expression in mouse model of asthma administered with asRac. For whole cell lysate preparation, cells from the lung tissues of buffer, control Rac oligonucleotide or antisense Rac oligonucleotide injected mice were suspended with lysis buffer and incubated for 20 min. After centrifugation of the samples, protein quantification was carried out using Bradford reagent and Western blot analysis was performed.
Oligonucleotides, from Genotech Co. (Korea), were synthesized with a phosphorothioate backbone to improve the resistance to endonuclease. The antisense oligonucleotide consisted of 17 nucleotides analogues to the 5′ end of the murine Rac mRNA sequence, which spans the translation initiation site. […]

Compound: CCc1cc(C(C)=O)c(O)cc1OCCCCCC(C)(C)c1nnn[nH]1 [LY255283, 1-[5-ethyl-2-hydroxy-4-[[6-methyl-6-(1H-tetrazol-5-yl)heptyl]oxy]phenyl]-ethanone, reference compound]
- inhibition of eosinophil chemotaxis (eosinophil): 80%

Compound: antisense BLT2: Antisense BLT2 oligonucleotide 5′-GCTCAGTAGTGTCTCATTCC-3′ (SEQ ID NO: 15) (listed as DNA, chemistry not fully specified)
- BLT1 expression in the lung (mRNA) (BLT1 mRNA): without interfering
- reduction of ROS levels in BAL fluid (ROS): −70%

Compound: antisense Rac: phosphorothioate 17-mer to the 5′ end of murine Rac mRNA, 5′-CACTTGATGGCCTGCAT-3′ (SEQ ID NO: 22) (listed as DNA, chemistry not fully specified)
- endogenous expression of Rac in the lung tissues (Rac): inhibited
